Assay results taken from US9265773B2, “Tetracyclic heterocycle compounds and methods of use thereof for the treatment of viral diseases” (priority 2011, dated 2016).

Assays:
[1] = system: HCV replicon genotype 1a; assay: microbe, parasite or virus in culture; format: cell-based; conditions: Hepatitis C virus, 96 h, genotype 1a replicon cells, incubated 96 hours, NS3/4A ELISA readout
[2] = system: HCV replicon genotype 1b; assay: microbe, parasite or virus in culture; format: cell-based; conditions: Hepatitis C virus, 96 h, genotype 1b replicon cells, incubated 96 hours, NS3/4A ELISA readout

SMILES	IC50 [1] [nM]	IC50 [2] [nM]
CNC(=O)c1c(-c2ccc(F)cc2)oc2cc(N(C)S(C)(=O)=O)c(-c3ccc4c(n3)-c3cc5c(F)cncc5n3CO4)cc12 [Compound 46, 5-(11-fluoro-6H-pyrido[2,3-e]pyrido[4′,3′:4,5]pyrrolo[1,2-c][1,3]oxazin-2-yl)-2-(4-fluorophenyl)-N-methyl-6-(N-methylmethylsulfonamido)benzofuran-3-carboxamide]	1.5	2.1
CNC(=O)c1c(-c2ccc(F)cc2)oc2cc(N(C)S(C)(=O)=O)c(-c3ccc4c(n3)-c3cc5c(C#N)nccc5n3CO4)cc12 [Compound 47]	1.2	1.8
CNC(=O)c1c(-c2ccc(F)cc2)oc2cc(N(C)S(C)(=O)=O)c(-c3ccc4c(n3)-c3cc5cccnc5n3CO4)cc12 [Compound 48, 2-(4-fluorophenyl)-N-methyl-6-(N-methylmethylsulfonamido)-5-(6H-pyrido[2,3-e]pyrido[3′,2′:4,5]pyrrolo[1,2-c][1,3]oxazin-2-yl)benzofuran-3-carboxamide]	2.2	2.6
CNC(=O)c1c(-c2ccc(F)cc2)oc2cc(N(C)S(C)(=O)=O)c(-c3ccc4c(c3)-c3cc5cccnc5n3CO4)cc12 [Compound 49]	0.6	1.7
CNC(=O)c1c(-c2ccc(F)cc2)oc2cc(N(C)S(C)(=O)=O)c(-c3cc4c(cn3)OCn3c-4cc4cccnc43)cc12 [Compound 50]	15	4.6
CNC(=O)c1c(-c2ccc(F)cc2)oc2cc(N(C)S(C)(=O)=O)c(-c3ccc4c(n3)-c3cc5c(F)cccc5n3C(c3ccccc3)O4)cc12 (centres unmarked) [Compound 51, 5-(11-fluoro-6-phenyl-6H-pyrido[2′,3′:5,6][1,3]oxazino[3,4-a]indol-2-yl)-2-(4-fluorophenyl)-N-methyl-6-(N-methylmethylsulfonamido)benzofuran-3-carboxamide]	17	33
CNC(=O)c1c(-c2ccc(F)cc2)oc2cc(N(C)S(C)(=O)=O)c(-c3ccc4c(n3)-c3[nH]c5ncccc5c3CO4)cc12 [Compound 52, 5-(6,11-dihydropyrido[2″,3″:5′,6′]pyrano[3′,4′:4,5]pyrrolo[2,3-b]pyridin-2-yl)-2-(4-fluorophenyl)-N-methyl-6-[methyl(methylsulfonyl)amino]-1-benzofuran-3-carboxamide]	1.7	2.7
CNC(=O)c1c(-c2ccc(F)cc2)oc2cc(N(C)S(C)(=O)=O)c(-c3ccc4oc(=O)n5c6ccccc6cc5c4c3)cc12 [Compound 53, 2-(4-fluorophenyl)-N-methyl-6-(N-methylmethylsulfonamido)-5-(6-oxo-6H-benzo[5,6][1,3]oxazino[3,4-a]indol-2-yl)benzofuran-3-carboxamide]	8	7.9
CNC(=O)c1c(-c2ccc(F)cc2)oc2cc(N(C)S(C)(=O)=O)c(-c3ccc4oc(=O)n5c6cccc(F)c6cc5c4n3)cc12 [Compound 54, 5-(11-fluoro-6-oxo-6H-pyrido[2′,3′:5,6][1,3]oxazino[3,4-a]indol-2-yl)-2-(4-fluorophenyl)-N-methyl-6-(N-methylmethylsulfonamido)benzofuran-3-carboxamide]	69	39
CNC(=O)c1c(-c2ccc(F)cc2)oc2cc(N(C)S(C)(=O)=O)c(-c3ccc4c(n3)-c3c(Cl)c5ccccc5n3CO4)cc12 [Compound 55, 5-(12-chloro-6H-pyrido[2′,3′:5,6][1,3]oxazino[3,4-a]indol-2-yl)-2-(4-fluorophenyl)-N-methyl-6-(N-methylmethylsulfonamido)benzofuran-3-carboxamide]	57	49
CNC(=O)c1c(-c2ccc(F)cc2)oc2cc(N(C)S(C)(=O)=O)c(-c3ccc4c(n3)-c3c(Cl)c5c(F)cccc5n3CO4)cc12 [Compound 56]	13	12
CNC(=O)c1c(-c2ccc(F)cc2)oc2cc(N(C)S(C)(=O)=O)c(-c3ccc4c(n3)-c3c(Cl)c5c(Cl)cccc5n3CO4)cc12 [Compound 57]	11	13
CNC(=O)c1c(-c2ccc(F)cc2)oc2cc(N(C)S(C)(=O)=O)c(-c3ccc4c(n3)-c3c(F)c5ccccc5n3CO4)cc12 [Compound 58, 5-(12-fluoro-6H-pyrido[2′,3′:5,6][1,3]oxazino[3,4-a]indol-2-yl)-2-(4-fluorophenyl)-N-methyl-6-(N-methylmethylsulfonamido)benzofuran-3-carboxamide]	13	8.7
CNC(=O)c1c(-c2ccc(F)cc2)oc2cc(N(C)S(C)(=O)=O)c(-c3ccc4c(n3)-c3c(F)c5c(F)cccc5n3CO4)cc12 [Compound 59]	2.5	4.2
CNC(=O)c1c(-c2ccc(F)cc2)oc2cc(N(C)S(C)(=O)=O)c(-c3ccc4c(n3)-c3c(C#N)c5ccccc5n3CO4)cc12 [Compound 60, 5-(12-cyano-6H-pyrido[2′,3′:5,6][1,3]oxazino[3,4-a]indol-2-yl)-2-(4-fluorophenyl)-N-methyl-6-(N-methylmethylsulfonamido)benzofuran-3-carboxamide]	69	31
CNC(=O)c1c(-c2ccc(F)cc2)oc2cc(N(C)S(C)(=O)=O)c(-c3ccc4c(c3)-c3[nH]c5ccccc5c3C(C)(C)O4)cc12 [Compound 61, 5-(6,6-dimethyl-6,11-dihydrochromeno[4,3-b]indol-2-yl)-2-(4-fluorophenyl)-N-methyl-6-(N-methylmethylsulfonamido)benzofuran-3-carboxamide]	6.5	11

SMILES	IC50 [1] [nM]	IC50 [2] [nM]
CNC(=O)c1c(-c2ccc(F)cc2)oc2cc(N(C)S(C)(=O)=O)c(-c3ccc4c(c3)-c3[nH]c5ccccc5c3C(c3cccnc3)O4)cc12 (centres unmarked) [Compound 62]	12	3.4
CNC(=O)c1c(-c2ccc(F)cc2)oc2cc(N(C)S(C)(=O)=O)c(-c3ccc4c(c3)-c3[nH]c5ccccc5c3C(c3ccccc3)O4)cc12 (centres unmarked) [Compound 63, 2-(4-fluorophenyl)-N-methyl-6-(N-methylmethylsulfonamido)-5-(6-phenyl-6,11-dihydrochromeno[4,3-b]indol-2-yl)benzofuran-3-carboxamide]	92	83
CNC(=O)c1c(-c2ccc(F)cc2)oc2cc(N(C)S(C)(=O)=O)c(-c3ccc4c(c3)-c3[nH]c5ccccc5c3C(C(C)(C)C)O4)cc12 (centres unmarked) [Compound 64]	71	44
CNC(=O)c1c(-c2ccc(F)cc2)oc2cc(N(C)S(C)(=O)=O)c(-c3ccc4c(c3)-c3[nH]c5ccccc5c3C3(CCCC3)O4)cc12 [Compound 65]	11	19
CNC(=O)c1c(-c2ccc(F)cc2)oc2cc(N(C)S(C)(=O)=O)c(-c3ccc4c(n3)-c3[nH]c5cccc(F)c5c3C(c3cccs3)O4)cc12 (centres unmarked) [Compound 66, 5-(7-fluoro-6-(thiophen-2-yl)-6,11-dihydropyrido[2′,3′:5,6]pyrano[4,3-b]indol-2-yl)-2-(4-fluorophenyl)-N-methyl-6-(N-methylmethylsulfonamido)benzofuran-3-carboxamide]	49	59
CNC(=O)c1c(-c2ccc(F)cc2)oc2cc(N(C)S(C)(=O)=O)c(-c3ccc4c(n3)-c3[nH]c5cccc(F)c5c3C(c3nccs3)O4)cc12 (centres unmarked) [Compound 67]	9.2	10
CNC(=O)c1c(-c2ccc(F)cc2)oc2cc(N(C)S(C)(=O)=O)c(-c3ccc4c(n3)-c3cc5c(CN)cccc5n3CO4)cc12 [Compound 68]	60	19
CNC(=O)c1c(-c2ccc(F)cc2)oc2cc(N(C)S(C)(=O)=O)c(-c3ccc4c(n3)-c3cc5cccc(CN)c5n3CO4)cc12 [Compound 69]	57	45
CNC(=O)c1c(-c2ccc(F)cc2)oc2cc(N(C)S(C)(=O)=O)c(-c3ccc4c(n3)-c3cc5c(CN(C)C)cccc5n3CO4)cc12 [Compound 70]	71	18
CNC(=O)c1c(-c2ccc(F)cc2)oc2cc(N(C)S(C)(=O)=O)c(-c3ccc4c(n3)-c3cc5cccc(CN(C)C)c5n3CO4)cc12 [Compound 71]	13	4.5
CNC(=O)c1c(-c2ccc(F)cc2)oc2cc(N(C)S(C)(=O)=O)c(-c3ccc4c(n3)-c3cc5c(CO)cccc5n3CO4)cc12 [Compound 72, 2-(4-fluorophenyl)-5-(11-(hydroxymethyl)-6H-pyrido[2′,3′:5,6][1,3]oxazino[3,4-a]indol-2-yl)-N-methyl-6-(N-methylmethylsulfonamido)benzofuran-3-carboxamide]	52	9
CNC(=O)c1c(-c2ccc(F)cc2)oc2cc(N(C)S(C)(=O)=O)c(-c3ccc4c(n3)-c3cc5c(C(N)=O)cccc5n3CO4)cc12 [Compound 73, 2-(2-(4-fluorophenyl)-3-(methylcarbamoyl)-6-(N-methylmethylsulfonamido)benzofuran-5-yl)-6H-pyrido[2′,3′:5,6][1,3]oxazino[3,4-a]indole-11-carboxamide]	625	36
CNC(=O)c1c(-c2ccc(F)cc2)oc2cc(N(C)S(C)(=O)=O)c(-c3cc4c(c[n+]3[O-])OCn3c-4cc4c(F)cccc43)cc12 [Compound 74]	15	25
CNC(=O)c1c(-c2ccc(F)cc2)oc2cc(N(C)S(C)(=O)=O)c(-c3ccc4c(c3)-c3cc5ccccc5n3CC(O)CO4)cc12 (centres unmarked) [Compound 75, 2-(4-fluorophenyl)-5-(7-hydroxy-7,8-dihydro-6H-benzo[2,3][1,5]oxazocino[5,4-a]indol-2-yl)-N-methyl-6-(N-methylmethylsulfonamido)benzofuran-3-carboxamide]	2.8	2.6
CNC(=O)c1c(-c2ccc(F)cc2)oc2cc(N(C)S(C)(=O)=O)c(-c3ccc4c(c3)-c3cc5ccccc5n3CC(F)CO4)cc12 (centres unmarked) [Compound 76, 5-(7-fluoro-7,8-dihydro-6H-benzo[2,3][1,5]oxazocino[5,4-a]indol-2-yl)-2-(4-fluorophenyl)-N-methyl-6-(N-methylmethylsulfonamido)benzofuran-3-carboxamide]	4.5	5.8
